This is an account of results in US5705649A, “Protein staining compositions and methods” (Promega Corporation, priority 1995, dated 1998).

Assay [1] relates to Promega Mid Range Molecular Weight Markers. In words: Rapid enhancement of the staining of proteins with low residual color in the gel. Here is the method: In order to develop such a method, several 10% SDS-PAGE gels made as described in Example 5 were made and loaded with samples made as described therein with the following changes: the sample loading size was reduced to 5 μl; and the solutions were made to contain 1.0, 0.50, 0.25, and 0.125 μg of each protein band of Promega Mid Range Molecular Weight Markers in 5 μl of the sample. Each gel was loaded such that duplicate panels of samples containing the various concentrations of protein were present in 4 consecutive lanes. The gels were run as described above and the gel was cut between the duplicate sample panels. A gel segment containing one panel was placed in each of the following solutions: 30 ml of 2% glacial acetic acid (A); 30 ml of 2% glacial acetic acid in 10% methanol (B); 2% glacial acetic acid in 20% methanol (C); 2% glacial acetic acid in 30% methanol (D); 30 ml of water (E); 30 ml of 10% methanol (F); 30 ml of 20% methanol (G); and 30 ml of 30% methanol (H). The solutions were incubated with the gel segments for 10 minutes at room temperature and gently rotated at 40 rpm to prevent settling of the gel segments in the containers. […]
Protocols using other dyes that have been developed for the sensitive detection of protein sometimes employ the incubation of the gel in solutions containing the stain followed by incubation of the gel in solutions lacking the stain. In order to determine if such a protocol could be used to allow even lower levels of protein to be detected using Promega Green 1, the following study was performed. […]

Assay [2] has as its system Promega Mid-Range Molecular Weight Markers. In words: Enhancement of staining of proteins in SDS-PAGE gels in 5% acetic acid. Here is the method:
The gels described above were placed in 5% acetic acid following the termination of the electrophoretic separation. Within one to two minutes the gel developed a light green background but the protein bands dramatically darkened to a green color. […] Again, the color of the background darkened to a greater degree when greater concentrations of dye were used.
The gels above (from Example 7) were placed in 5% acetic acid following termination of the electrophoretic separation. Within 1-2 minutes, all the gels turned light green and the color of the stained bands intensified such that all proteins were visible--even in the lane containing 0.25 μg protein/band.
The gels above (Example 9) were placed in 5% acetic acid following termination of the electrophoretic separation. Within 1-2 minutes, all the gels turned light green and the color of the stained bands intensified such that all proteins were visible--even in the lanes containing 0.25 μg protein/band.

Take `CCCCCCCC(=O)N(c1ccc(OCC)cc1)c1ccc(C(=C2C=CC(=[N+](CC)Cc3cccc(S(=O)(=O)[O-])c3)C=C2)c2ccc(N(CC)Cc3cccc(S(=O)(=O)O)c3)cc2)cc1` [Promega Green 1]: the “amount of protein in a band that can be detected” value in assay [1] (methanol/acetic acid solutions A-H, 10 min then 60 min) is given as “less than 125 ng”. Moreover, the “lowest protein per band visible” value in assay [1] (post-incubation with dye 1:5000 and 1:10,000 in 30-50% methanol, then without dye) amounted to 62.5 ng. Besides, the background staining entry in assay [1] (solution set H (30% methanol, then 2% acetic acid in 30% methanol)) is given as “very little background staining remaining”. In assay [2] (5% acetic acid, one to two minutes), the “visibility of protein bands after enhancement” value was “All of the protein bands in all the lanes having sample were now visible”. Further, the “staining after overnight incubation” value in assay [2] (5% acetic acid, overnight) is reported as “appeared to darken slightly”. In assay [2] (Examples 5-10), the overall performance result was “most desirable properties of the compounds tested”.
